Measured values taken from patent publication US11098034B2, “Pyrazolyl substituted carbonic acid derivatives as modulators of the prostacyclin (PGI2) receptor useful for the treatment of disorders related thereto” (Arena Pharmaceuticals, Inc., priority 2008, dated 2021).

System: MCT-induced pulmonary arterial hypertension in rat
Experiment: Rat monocrotaline model of pulmonary arterial hypertension
Format: in vivo
Settings: male Wistar rats, MCT 60 mg/kg s.c.; test compound 30 mg/kg oral gavage twice a day for 21 days; heart weights Day 22
Method: Animals: Male Wistar rats (100-150 g at start of study) (Charles River Laboratories, Wilmington, Mass.) were housed two per cage and maintained in a humidity—(40-60%) and temperature—(68-72° F.) controlled facility on a 12 hr:12 hr light/dark cycle (lights on at 6:30 am) with free access to food (Harlan Teklad, Orange Calif., Rodent Diet 8604) and water. Rats were allowed one week of habituation to the animal facility before testing.
Rat monocrotaline model: The rat monocrotaline (MCT) model is a standard and well-accepted model of pulmonary arterial hypertension. MCT induces acute pulmonary endothelial damage associated with pulmonary vascular inflammation. […]
Rats were randomly given a single subcutaneous injection of either 60 mg/kg MCT (Sigma, St. Louis, Mo.) or 0.9% saline (sham) and assigned to receive oral administration of 20% hydroxypropyl beta-cyclodextrin (vehicle) or test compound (30 mg/kg; FIGS. 1 and 2). […] Heart chamber weights were measured on Day 22. […] The ratio of right ventricular (RV) weight to left ventricle plus septum (LV+S) weight (this ratio is indicated as “RV/(LV+S)” in FIGS. 1 and 2) was calculated as an index of the hypertrophic response to the induced pulmonary arterial hypertension and, as such, as an index of a test compound's therapeutic efficacy for pulmonary arterial hypertension.

| SMILES | hypertrophic response to the induced pulmonary arterial hypertension, RV/(LV+S) |
| --- | --- |
| COc1cccc(-c2c(-c3ccccc3)nn(C[C@H]3CC[C@@H](COCC(=O)O)CC3)c2C)c1 [Compound 14, 2-(((1s,4s)-4-((4-(3-Methoxyphenyl)-5-methyl-3-phenyl-1H-pyrazol-1-yl)methyl)cyclohexyl)methoxy)acetic Acid] | inhibited the hypertrophic response |
| COc1cccc(-c2c(-c3ccccc3)nn(C[C@H]3CC[C@@H](COCC(=O)O)CC3)c2SC)c1 [Compound 31, 2-(((1s,4s)-4-((4-(3-Methoxyphenyl)-5-(methylthio)-3-phenyl-1H-pyrazol-1-yl)methyl)cyclohexyl)methoxy)acetic Acid] | inhibited the hypertrophic response |
